Laboratory results reported in patent publication US10202361B2, “Pyridazinones as herbicides” (E I DU PONT DE NEMOURS AND COMPANY, priority 2014, dated 2019).

How the values were obtained:
Test in all cases: Test D pre-/postemergence controlled growth environment herbicide test
Type in all cases: in vivo
Settings in all cases: scale 0 to 100
[1] = system: Russian thistle (Salsola kali)
Outline: (§1)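 Pre-emergence treatment on silt loam soil and post-emergence treatment of 1- to 4-leaf plants (2–18 cm) in peat-based medium, compounds in a non-phytotoxic solvent with surfactant. Visual rating against untreated controls after 14–21 d in a controlled environment, scale 0 (no effect) to 100 (complete control).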

[2] = system: oat, wild (wild oat, Avena fatua)
Outline: as §1

[3] = system: foxtail, green (green foxtail, Setaria viridis)
Outline: as §1

[4] = system: speedwell (bird's-eye speedwell, Veronica persica)
Outline: as §1

[5] = system: barley, winter (winter barley, Hordeum vulgare)
Outline: as §1

[6] = system: radish, wild (wild radish, Raphanus raphanistrum)
Outline: as §1

Measured: Plant response rating

Cc1cc(=O)n(-c2ccc(F)cc2)nc1Cc1ccnc(C(F)(F)F)c1 [Compound 1, 2-(4-fluorophenyl)-5-methyl-6-[[2-(trifluoromethyl)-4-pyridinyl]methyl]-3(2H)-pyridazinone]
20: [1]; Postemergence, 62 g ai/ha | [1]; Preemergence, 62 g ai/ha | [3]; Postemergence, 250 g ai/ha
25: [6]; Postemergence, 62 g ai/ha
15: [2]; Preemergence, 125 g ai/ha | [5]; Postemergence, 500 g ai/ha
30: [4]; Postemergence, 31 g ai/ha
35: [2]; Preemergence, 250 g ai/ha | [6]; Postemergence, 125 g ai/ha
90: [6]; Postemergence, 500 g ai/ha
100: [1]; Preemergence, 125 g ai/ha | [1]; Preemergence, 250 g ai/ha | [1]; Preemergence, 500 g ai/ha | [3]; Preemergence, 125 g ai/ha | [3]; Preemergence, 250 g ai/ha | [3]; Preemergence, 500 g ai/ha | [4]; Postemergence, 125 g ai/ha | [4]; Postemergence, 500 g ai/ha | [4]; Preemergence, 31 g ai/ha | [4]; Preemergence, 62 g ai/ha | [4]; Preemergence, 125 g ai/ha | [4]; Preemergence, 250 g ai/ha | [4]; Preemergence, 500 g ai/ha | [6]; Preemergence, 250 g ai/ha | [6]; Preemergence, 500 g ai/ha
60: [3]; Preemergence, 62 g ai/ha | [5]; Preemergence, 500 g ai/ha | [6]; Preemergence, 125 g ai/ha
80: [2]; Preemergence, 500 g ai/ha | [4]; Postemergence, 62 g ai/ha
70: [3]; Postemergence, 500 g ai/ha
10: [2]; Postemergence, 31 g ai/ha | [2]; Postemergence, 62 g ai/ha | [2]; Postemergence, 125 g ai/ha | [2]; Postemergence, 250 g ai/ha | [2]; Postemergence, 500 g ai/ha | [5]; Postemergence, 250 g ai/ha | [6]; Postemergence, 31 g ai/ha
50: [1]; Postemergence, 250 g ai/ha | [6]; Postemergence, 250 g ai/ha
40: [4]; Postemergence, 250 g ai/ha | [5]; Preemergence, 250 g ai/ha
5: [5]; Preemergence, 62 g ai/ha | [5]; Preemergence, 125 g ai/ha
0: [2]; Preemergence, 62 g ai/ha | [3]; Postemergence, 31 g ai/ha | [3]; Postemergence, 62 g ai/ha | [3]; Postemergence, 125 g ai/ha | [3]; Preemergence, 31 g ai/ha | [5]; Postemergence, 31 g ai/ha | [5]; Postemergence, 62 g ai/ha | [5]; Postemergence, 125 g ai/ha | [5]; Preemergence, 31 g ai/ha
75: [6]; Preemergence, 62 g ai/ha

Cc1cc(=O)n(-c2ccc(C(F)(F)F)cc2)nc1Cc1ccnc(C(F)(F)F)c1 [Compound 2, 5-methyl-2-[4-(trifluoromethyl)phenyl]-6-[[2-(trifluoromethyl)-4-pyridinyl]methyl]-3(2H)-pyridazinone]
20: [3]; Preemergence, 31 g ai/ha | [5]; Postemergence, 250 g ai/ha | [6]; Postemergence, 31 g ai/ha | [6]; Postemergence, 62 g ai/ha
15: [2]; Postemergence, 250 g ai/ha | [5]; Postemergence, 62 g ai/ha | [5]; Postemergence, 125 g ai/ha
25: [1]; Postemergence, 62 g ai/ha | [5]; Postemergence, 500 g ai/ha
45: [3]; Postemergence, 250 g ai/ha
40: [3]; Postemergence, 125 g ai/ha
90: [6]; Postemergence, 125 g ai/ha
0: [1]; Preemergence, 62 g ai/ha | [2]; Preemergence, 31 g ai/ha | [2]; Preemergence, 62 g ai/ha | [3]; Postemergence, 31 g ai/ha | [5]; Preemergence, 31 g ai/ha | [5]; Preemergence, 62 g ai/ha
100: [1]; Postemergence, 500 g ai/ha | [1]; Preemergence, 125 g ai/ha | [1]; Preemergence, 250 g ai/ha | [1]; Preemergence, 500 g ai/ha | [3]; Preemergence, 250 g ai/ha | [3]; Preemergence, 500 g ai/ha | [4]; Postemergence, 31 g ai/ha | [4]; Postemergence, 62 g ai/ha | [4]; Postemergence, 125 g ai/ha | [4]; Postemergence, 250 g ai/ha | [4]; Postemergence, 500 g ai/ha | [4]; Preemergence, 31 g ai/ha | [4]; Preemergence, 62 g ai/ha | [4]; Preemergence, 125 g ai/ha | [4]; Preemergence, 250 g ai/ha | [4]; Preemergence, 500 g ai/ha | [6]; Postemergence, 250 g ai/ha | [6]; Postemergence, 500 g ai/ha | [6]; Preemergence, 31 g ai/ha | [6]; Preemergence, 62 g ai/ha | [6]; Preemergence, 125 g ai/ha | [6]; Preemergence, 250 g ai/ha | [6]; Preemergence, 500 g ai/ha
75: [3]; Postemergence, 500 g ai/ha
50: [5]; Preemergence, 500 g ai/ha
30: [2]; Postemergence, 500 g ai/ha | [5]; Preemergence, 125 g ai/ha | [5]; Preemergence, 250 g ai/ha
10: [2]; Postemergence, 31 g ai/ha | [2]; Postemergence, 62 g ai/ha | [2]; Postemergence, 125 g ai/ha | [5]; Postemergence, 31 g ai/ha
5: [3]; Postemergence, 62 g ai/ha
80: [1]; Postemergence, 250 g ai/ha | [2]; Preemergence, 250 g ai/ha | [2]; Preemergence, 500 g ai/ha
85: [3]; Preemergence, 125 g ai/ha
35: [2]; Preemergence, 125 g ai/ha
